Experimental data from ChEMBL document CHEMBL4396870, “Pharmacological Chaperones for the Treatment of α-Mannosidosis” (J Med Chem, 2019).
Activity calls are given as the source filed them. The rule behind the calls is not given here.

Legend:
[1] = Inhibition of bovine liver beta-glucosidase assessed as residual hydrolytic activity after 10 to 30 mins by spectrophotometric analysis; parameters: species or system Bos taurus
Alpha-mannosidase = molecular target: T1, Alpha-mannosidase (Canavalia ensiformis, UniProt C0HJB3); assay: Inhibition of jack bean Lysosomal alpha-mannosidase assessed as residual hydrolytic activity after 10 to 30 mins by spectrophotometric analysis
T1 sequence (C0HJB3 whole entry): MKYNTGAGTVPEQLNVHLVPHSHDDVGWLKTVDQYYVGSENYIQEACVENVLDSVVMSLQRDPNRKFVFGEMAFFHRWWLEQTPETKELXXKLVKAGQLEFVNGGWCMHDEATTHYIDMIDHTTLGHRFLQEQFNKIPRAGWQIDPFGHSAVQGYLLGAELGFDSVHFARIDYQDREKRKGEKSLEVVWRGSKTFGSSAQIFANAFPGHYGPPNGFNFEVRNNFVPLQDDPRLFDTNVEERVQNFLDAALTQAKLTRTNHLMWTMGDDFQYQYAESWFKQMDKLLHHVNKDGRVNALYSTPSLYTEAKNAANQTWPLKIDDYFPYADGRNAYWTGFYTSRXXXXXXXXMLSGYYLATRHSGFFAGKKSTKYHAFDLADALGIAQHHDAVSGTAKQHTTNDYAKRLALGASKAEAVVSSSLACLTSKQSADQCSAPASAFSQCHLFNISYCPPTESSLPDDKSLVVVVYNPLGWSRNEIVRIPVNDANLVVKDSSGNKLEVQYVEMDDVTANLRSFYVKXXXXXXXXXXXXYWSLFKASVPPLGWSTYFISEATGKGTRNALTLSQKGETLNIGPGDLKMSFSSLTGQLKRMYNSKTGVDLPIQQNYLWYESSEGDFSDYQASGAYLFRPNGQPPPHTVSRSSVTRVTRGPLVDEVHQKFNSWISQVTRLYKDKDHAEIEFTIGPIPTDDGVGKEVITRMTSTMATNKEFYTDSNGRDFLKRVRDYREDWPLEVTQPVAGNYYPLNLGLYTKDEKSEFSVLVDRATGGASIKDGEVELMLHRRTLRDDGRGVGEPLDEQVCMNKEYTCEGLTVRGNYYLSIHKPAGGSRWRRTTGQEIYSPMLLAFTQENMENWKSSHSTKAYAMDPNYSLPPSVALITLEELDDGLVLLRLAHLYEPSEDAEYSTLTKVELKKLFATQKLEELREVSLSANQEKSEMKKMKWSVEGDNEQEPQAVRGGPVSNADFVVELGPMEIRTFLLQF

[2] = Inhibition of almond beta-glucosidase assessed as residual hydrolytic activity after 10 to 30 mins by spectrophotometric analysis; parameters: species or system Prunus dulcis
[3] = Inhibition of Helix pomatia beta-mannosidase assessed as residual hydrolytic activity after 10 to 30 mins by spectrophotometric analysis; settings: read-out: Ki
Saccharomyces cerevisiae [4] = assay: Inhibition of yeast alpha-glucosidase assessed as residual hydrolytic activity up to 2 mM after 10 to 30 mins by spectrophotometric analysis
Helix pomatia = assay: Inhibition of Helix pomatia beta-mannosidase assessed as residual hydrolytic activity up to 2 mM after 10 to 30 mins by spectrophotometric analysis
Saccharomyces cerevisiae [5] = assay: Inhibition of yeast isomaltase assessed as residual hydrolytic activity up to 2 mM after 10 to 30 mins by spectrophotometric analysis
Aspergillus niger = assay: Inhibition of Aspergillus niger amyloglucosidase assessed as residual hydrolytic activity up to 2 mM after 10 to 30 mins by spectrophotometric analysis
[6] = molecular target: Beta-galactosidase (Escherichia coli) (UniProt Q8VNN2); assay: Inhibition of Escherichia coli beta-galactosidase assessed as residual hydrolytic activity up to 2 mM after 10 to 30 mins by spectrophotometric analysis
[7] = molecular target: Alpha-galactosidase (Coffea arabica) (UniProt Q42656); assay: Inhibition of green coffee alpha-galactosidase assessed as residual hydrolytic activity up to 2 mM after 10 to 30 mins by spectrophotometric analysis
Alpha-galactosidase (Coffea arabica), sequence (Q42656 16-378 limits assumed): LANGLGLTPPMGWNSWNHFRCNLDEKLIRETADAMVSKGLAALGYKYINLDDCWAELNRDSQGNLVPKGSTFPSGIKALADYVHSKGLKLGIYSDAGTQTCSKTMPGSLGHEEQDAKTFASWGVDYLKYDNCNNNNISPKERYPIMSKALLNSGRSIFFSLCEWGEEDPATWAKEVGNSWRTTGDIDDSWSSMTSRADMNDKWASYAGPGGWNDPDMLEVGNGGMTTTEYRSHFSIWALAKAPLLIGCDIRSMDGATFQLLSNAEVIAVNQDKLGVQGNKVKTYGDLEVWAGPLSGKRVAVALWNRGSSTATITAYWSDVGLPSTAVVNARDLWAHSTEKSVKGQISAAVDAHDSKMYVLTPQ

Beta-galactosidase (Escherichia coli), sequence (Q8VNN2 whole entry, looked up): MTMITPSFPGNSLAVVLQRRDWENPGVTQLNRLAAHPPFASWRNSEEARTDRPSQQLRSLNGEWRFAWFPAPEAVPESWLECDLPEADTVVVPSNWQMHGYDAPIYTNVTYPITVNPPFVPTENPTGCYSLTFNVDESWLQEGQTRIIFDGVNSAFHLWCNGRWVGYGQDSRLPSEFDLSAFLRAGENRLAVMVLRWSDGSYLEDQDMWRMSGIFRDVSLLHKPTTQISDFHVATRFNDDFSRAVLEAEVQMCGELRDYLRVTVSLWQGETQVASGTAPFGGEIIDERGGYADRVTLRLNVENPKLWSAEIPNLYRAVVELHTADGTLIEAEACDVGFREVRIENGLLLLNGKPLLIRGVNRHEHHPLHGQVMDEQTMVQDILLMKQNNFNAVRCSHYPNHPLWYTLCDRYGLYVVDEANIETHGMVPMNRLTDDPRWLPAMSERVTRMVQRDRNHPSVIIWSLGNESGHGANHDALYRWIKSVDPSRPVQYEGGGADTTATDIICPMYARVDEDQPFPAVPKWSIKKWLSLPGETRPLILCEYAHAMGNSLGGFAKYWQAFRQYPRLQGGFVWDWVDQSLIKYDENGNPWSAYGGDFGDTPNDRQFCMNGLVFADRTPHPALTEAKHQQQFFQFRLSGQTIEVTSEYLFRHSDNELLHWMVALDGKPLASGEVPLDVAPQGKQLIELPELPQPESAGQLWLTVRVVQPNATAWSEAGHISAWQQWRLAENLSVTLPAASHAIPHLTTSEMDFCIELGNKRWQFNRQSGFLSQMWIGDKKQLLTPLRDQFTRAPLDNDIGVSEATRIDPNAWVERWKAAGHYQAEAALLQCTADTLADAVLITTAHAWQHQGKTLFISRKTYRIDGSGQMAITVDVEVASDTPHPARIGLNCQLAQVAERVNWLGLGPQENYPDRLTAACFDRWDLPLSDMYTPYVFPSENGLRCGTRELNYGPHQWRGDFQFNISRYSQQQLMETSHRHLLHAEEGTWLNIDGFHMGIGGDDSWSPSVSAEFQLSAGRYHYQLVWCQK

Molecule `N[C@@H]1[C@@H](O)[C@@H](O)[C@H](O)[C@H]2COC(=O)N12` has a Ki [1] of 20 to 200 µM, a Ki (Alpha-mannosidase) of 7 µM and a Ki [2] of 20 to 200 µM. It also gave a Ki [3] of 20 to 200 µM.

With `O=C1OC[C@@H]2[C@@H](O)[C@H](O)[C@H](O)[C@@H](NCCCCCCn3cc(COC[C@H]4O[C@@H]5O[C@H]6[C@H](O)[C@@H](OCc7cn(CCCCCCN[C@@H]8[C@@H](O)[C@@H](O)[C@H](O)[C@H]9COC(=O)N98)nn7)[C@@H](O[C@H]7[C@H](O)[C@@H](OCc8cn(CCCCCCN[C@@H]9[C@@H](O)[C@@H](O)[C@H](O)[C@H]%10COC(=O)N%109)nn8)[C@@H](O[C@H]8[C@H](O)[C@@H](OCc9cn(CCCCCCN[C@@H]%10[C@@H](O)[C@@H](O)[C@H](O)[C@H]%11COC(=O)N%11%10)nn9)[C@@H](O[C@H]9[C@H](O)[C@@H](OCc%10cn(CCCCCCN[C@@H]%11[C@@H](O)[C@@H](O)[C@H](O)[C@H]%12COC(=O)N%12%11)nn%10)[C@@H](O[C@H]%10[C@H](O)[C@@H](OCc%11cn(CCCCCCN[C@@H]%12[C@@H](O)[C@@H](O)[C@H](O)[C@H]%13COC(=O)N%13%12)nn%11)[C@@H](O[C@H]%11[C@H](O)[C@@H](OCc%12cn(CCCCCCN[C@@H]%13[C@@H](O)[C@@H](O)[C@H](O)[C@H]%14COC(=O)N%14%13)nn%12)[C@@H](O[C@H]4[C@H](O)[C@H]5OCc4cn(CCCCCCN[C@@H]5[C@@H](O)[C@@H](O)[C@H](O)[C@H]%12COC(=O)N%125)nn4)O[C@@H]%11COCc4cn(CCCCCCN[C@@H]5[C@@H](O)[C@@H](O)[C@H](O)[C@H]%11COC(=O)N%115)nn4)O[C@@H]%10COCc4cn(CCCCCCN[C@@H]5[C@@H](O)[C@@H](O)[C@H](O)[C@H]%10COC(=O)N%105)nn4)O[C@@H]9COCc4cn(CCCCCCN[C@@H]5[C@@H](O)[C@@H](O)[C@H](O)[C@H]9COC(=O)N95)nn4)O[C@@H]8COCc4cn(CCCCCCN[C@@H]5[C@@H](O)[C@@H](O)[C@H](O)[C@H]8COC(=O)N85)nn4)O[C@@H]7COCc4cn(CCCCCCN[C@@H]5[C@@H](O)[C@@H](O)[C@H](O)[C@H]7COC(=O)N75)nn4)O[C@@H]6COCc4cn(CCCCCCN[C@@H]5[C@@H](O)[C@@H](O)[C@H](O)[C@H]6COC(=O)N65)nn4)nn3)N12` the inhibition (Saccharomyces cerevisiae [4]) was “Active”, the Activity (Helix pomatia) was “Active” and the inhibition (Saccharomyces cerevisiae [5]) was “Active”. For the same molecule, the inhibition (Aspergillus niger) was “Active”, the inhibition [6] was “Active” and the inhibition [7] was “Active”.
